# In patent publication US10259809B2, “Fluorinated imidazo[4,5-C]quinoline derivatives as inhibitors of bromodomain containing proteins” (Trillium Therapeutics Inc., priority 2015, dated 2019):
# What was measured:
# HL60 = test: Oncology cell growth assay, HL60; assay type: cell-based, human; details: HL60, Promyelocytic leukemia, gIC50, 72 hours
# Procedure: (§1) Human cell lines were cultured in RPMI-1640 containing 10% fetal bovine serum, 1000 viable cells per well were plated in 384-well black flat bottom polystyrene plates (Greiner #781086) in 48 ˜I of culture media. All plates were placed at 5% CO2, 37° C. overnight. The following day one plate was harvested with CeliTiter-Glo (CTG, Promega #G7573) for a time equal to 0 (TO) measurement and compound (20 point titration from 14.7 uM to 7 pM) was added to the remaining plates. The final concentration of DMSO in all wells was 0.15%. Cells were incubated for 72 hours or the indicated time and each plate was developed with CeliTiterGlo reagent using a volume equivalent to the cell culture volume in the wells. Plates were shaken for approximately 2 minutes and chemiluminescent signal was read on the Analyst GT (Molecular Devices) or EnVision Plate Reader (Perkin Elmer).
# (§2) Results are expressed as a percent of the TO and plotted against the compound concentration. The TO value was normalized to 100% and represents the number of cells at time of compound addition and the concentration response data were fit with a 4 parameter curve fit using XLfit software (model 205). […] The Ymin-TO value was determined by subtracting the TO value (100%) from the Ymin value (%) determined from the fit of the concentration response curve. […]
# MOLT4 = test: Oncology cell growth assay, MOLT4; assay type: cell-based, human; details: MOLT4, acute lymphoid leukemia; gIC50, 72 hours
# Procedure: as §1, §2
# TEX = test: Oncology cell growth assay, TEX; assay type: cell-based, human; details: AML (acute myeloid leukemia), gIC50, 72 hours
# Procedure: as §1, §2
# AML2 = test: Oncology cell growth assay, AML2; assay type: cell-based, human; details: AML2, AML (acute myeloid leukemia), gIC50, 72 hours
# Procedure: as §1, §2
# RPMI-8226 = test: Oncology cell growth assay, RPMI-8226; assay type: cell-based, human; details: RPMI-8226, Multiple myeloma, gIC50, 72 hours
# Procedure: as §1, §2
# MM.1S = test: Oncology cell growth assay, MM.1S; assay type: cell-based, human; details: Multiple myeloma, gIC50, 72 hours
# Procedure: as §1, §2
# MV4-11 = test: Oncology cell growth assay, MV4-11; assay type: cell-based, human; details: MV4-11, AML (acute myeloid) leukemia, gIC50, 72 hours
# Procedure: as §1, §2
# SK-OV-3 = test: Oncology cell growth assay, SK-OV-3; assay type: cell-based, human; details: SK-OV-3, Ovarian cancer, gIC50, 72 hours
# Procedure: as §1, §2
# [1] = system: MV4-11 human AML xenograft; test: MV4-11 subcutaneous human AML xenograft model, efficacy; assay type: in vivo, NOD SCID mice; details: PO
# Procedure: • Species & Strain: NOD SCID mice • Age: 7-8 week • Total Number: 60 mice plus 40% spare • Sex: Female • Body Weight: 18 to 22 g Animal Maintenance
# Groups and treatments started when the mean tumor volume reached 138 mm^3. Based on the tumor volume, mice were randomly assigned to respective groups using a computer-generated randomization procedure.
# Each mouse was inoculated subcutaneously on the right flank with MV4-11 tumor cells ([…]) in 0.1 ml of IMDM without serum for tumor development. The treatment started when the mean tumor size reached approximately 138 mm^3. Mice were randomized into groups.
# During the course of study, the tumor size was measured twice a week in two dimensions using a caliper, and the volume was expressed in mm^3 using the formula: TV=a×b2/2 where a and b were the long and short diameters of the tumor, respectively. The tumor size was then used for T/C and TGI (tumor growth inhibition) values, which were indicators of anti-tumor effectiveness. T/C was calculated with the formula [(Td−T0)/(Cd−C0)]×100%, TGI is calculated with the formula [1−(Td−T0)/(Cd−C0)]×100%. Td and Cd were the mean tumor volumes (or median tumor volumes) of the treated and control animals, and T0 and C0 were the mean tumor volumes of the treated and control animals at the start of the experiment.
# [2] = MV4-11 xenograft model, tolerance (body weight, clinical signs); assay type: in vivo
# Procedure: For routine monitoring, all study animals were monitored not only tumor growth but also behavior such as mobility, food and water consumption (by cage side checking only), body weight (BW), eye/hair matting and any other abnormal effect. Any mortality and/or abnormal clinical signs would be recorded.
# Body weights of all animals were measured twice weekly throughout the study.
# BRD3-1: Domain 1 of BRD3 = biological target: T1, BRD3-1: Domain 1 of BRD3 (Homo sapiens, UniProt Q15059); test: Bromodomain binding assay (Example 6), BRD3-1
# T1 construct: BRD3-1: Domain 1 of BRD3
# Procedure: (§3) The binding of the compounds of the application to bromodomains BRD2, BRD3 and BRD4 was assessed using a time resolved fluorescent resonance energy transfer binding assay (Alpha Screen Technology), that measures the binding of an acetylated histone peptide to the bromodomain protein.
# (§4) The bromodomain protein, histone peptide and a variable concentration of test compound were incubated together to reach thermodynamic equilibrium.
# BRD2-1: Domain 1 of BRD2 = biological target: T2, BRD2-1: Domain 1 of BRD2 (Homo sapiens, UniProt P25440); test: Bromodomain binding assay (Example 6), BRD2-1
# T2 construct: BRD2-1: Domain 1 of BRD2
# Procedure: as §3, §4
# [3] = biological target: T3, BRD4-FL: Full length BRD4 (Homo sapiens, UniProt O60885); test: Bromodomain binding assay (Example 6), BRD4-FL
# T3 construct: BRD4-FL: Full length BRD4
# Procedure: as §3, §4
# BRD4-FL = biological target: T4, BRD4-FL (Homo sapiens, UniProt O60885); test: BET Bromodomain AlphaScreen assay (Example 9), BRD4-FL; assay type: binding
# T4 construct: BRD4-FL: Full length BRD4
# Procedure: (§5) The reader assay was a binding assay using the AlphaScreen technology fluorescence energy resonance transfer (FRET) assay. The biotinylated peptide binding to the reader domain of His-tagged protein is monitored by the singlet oxygen transfer from the Streptavidin-coated donor beads to the AlphaScreen Ni-chelate acceptor beads.
# (§6) Reaction buffer: 50 mM Hepes, pH7.5, 100 mM NaCl, 0.05% CHAPS, 0.1% BSA, and 1% DMSO (Buffer and DMSO concentration may be different for different reader).
# (§7) Biotin-peptide; sequences were different for different targets.
# (§8) Reaction Procedure: • 1. Deliver 4× BRD in wells of reaction plate except No BRD control wells. Add buffer instead. • 2. Deliver compounds in 100% DMSO into the BRD mixture by Acoustic technology (Echo550; nanoliter range). Spin down and pre-incubation for 30 min. • 3. Deliver 4× Ligand. Spin and shake. • 4. Incubate for 30 min at room temperature with gentle shaking. • 5. Deliver 4× donor beads. Spin and shake. • 6. Deliver 4× acceptor beads. Spin and shake. Then gentle shaking in the dark for 60 min. • 7.
# BRD3-1 = biological target: T5, BRD3-1 (Homo sapiens, UniProt Q15059); test: BET Bromodomain AlphaScreen assay (Example 9), BRD3-1; assay type: binding
# T5 construct: BRD3-1: Domain 1 of BRD3
# Procedure: as §5, §6, §7, §8
# [4] = Liver microsome stability, human; assay type: in vitro ADME; details: pooled human liver microsomes (50 donors), 1 μM compound, 0.5 mg/ml microsomes, 37° C., read-out: % recovery Human Liver Microsomes (HLM) (30 min)
# Procedure: (§9) Working stocks were initially diluted to a concentration of 40.0 μM in 0.1 M potassium phosphate buffer before addition to the reaction vials. Pooled mouse (CD-1, male) or human (50 donors) liver microsomes were utilized at a final concentration of 0.5 mg/ml. Duplicate wells were used for each time point (0 and 30 minutes). Reactions were carried out at 37° C. in a shaker, and the final concentration of DMSO was kept constant at 0.01%. The final volume for each reaction was 100 μL, which includes the addition of an NADPH-Regeneration solution (NRS) mix. This NRS mix was comprised of glucose 6-phosphate dehydrogenase (0.4 U/mL), NADP+ (1.3 mM), MgCl2 (3.3 mM), and glucose 6-phosphate (3.3 mM) in assay mixtures. Upon completion of the 30 minute time point, reactions were terminated by the addition of 1.5-volumes (150 μL) of ice-cold, acetonitrile with 0.5% formic acid and internal standard. Samples were then centrifuged at 4,000 rpm for 10 minutes to remove debris and precipitated protein. Approximately 150 μL of supernatant was subsequently transferred to a new 96 well microplate for LC/MS analysis.
# (§10) Narrow-window mass extraction LC/MS analysis was performed for all samples using a Waters Xevo quadrupole time-of-flight (QTof) mass spectrometer and an ACQUITY UPLC system, to determine relative peak areas of parent compound.
# BRD2-1 = biological target: T6, BRD2-1 (Homo sapiens, UniProt P25440); test: BET Bromodomain AlphaScreen assay (Example 9), BRD2-1; assay type: binding
# T6 construct: BRD2-1: Domain 1 of BRD2
# Procedure: as §5, §6, §7, §8
# [5] = Liver microsome stability, mouse; assay type: in vitro ADME, mouse (CD-1; details: male, CD-1, mouse, pooled mouse liver microsomes, 1 μM compound, 0.5 mg/ml microsomes, 37° C., read-out: % recovery Mouse Liver Microsomes (MLM) (30 min)
# Procedure: as §9, §10
# GBM cell = details: in vitro and in vivo; cited from earlier work
# AR target genes = details: AR-positive cells; cited from earlier work
# ABC DLBCL = details: combination with drugs targeting B-cell receptor signaling; cited from earlier work
# [6] = system: prostate cancer cell lines with activated AR signaling; details: cited from earlier work
# T2 sequence (P25440 74-180 limits assumed): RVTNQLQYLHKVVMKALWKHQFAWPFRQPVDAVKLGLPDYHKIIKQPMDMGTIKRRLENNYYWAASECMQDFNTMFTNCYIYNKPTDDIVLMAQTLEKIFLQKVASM
# T6 sequence (P25440 74-180 limits assumed): as above
# T1 sequence (Q15059 34-140 limits assumed): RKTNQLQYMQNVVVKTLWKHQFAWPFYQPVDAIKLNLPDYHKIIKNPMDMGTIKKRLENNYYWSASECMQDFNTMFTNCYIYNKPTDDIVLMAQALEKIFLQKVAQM
# T5 sequence (Q15059 34-140 limits assumed): as above
compound,measurement,setting,value
COc1cc2c(cc1-c1c(C)noc1C)ncc1nc(C3CCOCC3)n([C@H](C)COC(F)F)c12.Cl [2(g)·HCl],IC50,HL60,51 ± 3 nM
same,IC50,MOLT4,1140 nM
same,IC50,TEX,23 ± 2 nM
same,IC50,AML2,18 ± 2 nM
same,IC50,RPMI-8226,303 ± 6 nM
same,IC50,MM.1S,17 ± 4 nM
same,IC50,MV4-11,14 ± 7 nM
same,IC50,SK-OV-3,2180 ± 1440 nM
same,antitumor activity,[1]; 30 mg/kg and 50 mg/kg,significant antitumor activity
same,antitumor activity,"[1]; low-dose 10 mg/kg, QD × 14",moderate antitumor activity
same,body weight loss,"[2]; 50 mg/kg PO, during the dosing period",9.1%
same,body weight after dose suspension,"[2]; 50 mg/kg, after a two days dose suspension on Day 8 and 9",maintained or recovered
"COc1cc2c(cc1-c1c(C)noc1C)ncc1nc(C3CC3)n([C@H](C)COC(F)F)c12.Cl [2(l), 4-[2-cyclopropyl-1-[(1R)-2-(difluoromethoxy)-1-methyl-ethyl]-8-methoxy-imidazo[4,5-c]quinolin-7-yl]-3,5-dimethyl-isoxazole hydrochloride]",IC50,BRD3-1: Domain 1 of BRD3,21 nM
same,IC50,BRD2-1: Domain 1 of BRD2,42 nM
same,IC50,[3],33 nM
same,IC50,"HL60; Homo sapiens, HL-60",179 ± 10 nM
same,EC50,BRD4-FL,33.1 nM
same,IC50,TEX; Homo sapiens,52 ± 73 nM
same,EC50,BRD3-1,20.7 nM
same,"recovery at 30 min, 1 μM",[4],43.6%
same,IC50,AML2; Homo sapiens,15 ± 1 nM
same,IC50,RPMI-8226; Homo sapiens,109 ± 32 nM
same,IC50,"MM.1S; Homo sapiens, MM1.S",94 ± 14 nM
same,IC50,MV4-11; Homo sapiens,156 ± 43 nM
same,EC50,BRD2-1,42.2 nM
same,"recovery at 30 min, 1 μM",[5],3%
same,IC50,SK-OV-3; Homo sapiens,360 ± 10 nM
same,antitumor activity,[1]; 30 mg/kg and 50 mg/kg,significant antitumor activity
same,tolerance,[2]; all dose levels (30 and 50 mg/kg PO),tolerated well
COc1cc2c(cc1-c1c(C)noc1C)ncc1[nH]c(=O)n([C@H](C)c3ccccn3)c12 [I-BET151],GBM cell proliferation,GBM cell,reduced GBM cell proliferation in vitro and in vivo
Cc1sc2c(c1C)C(c1ccc(Cl)cc1)=N[C@@H](CC(=O)OC(C)(C)C)c1nnc(C)n1-2 [JQ-1],levels of transcription of AR target genes,AR target genes,globally reduced the levels of transcription of AR target genes
same,drug-drug synergy,ABC DLBCL,combined favorably with multiple drugs targeting B-cell receptor signaling
same,apoptosis and cell cycle arrest,[6],sensitive to JQ1-induced apoptosis and cell cycle arrest
